Experimental data published in patent US20250235467A1, “DENDRITIC CELL VACCINATION IN PARALLEL TO CHEMOTHERAPY” (priority 2018, published 2025).
Read-outs that look alike come from different tables or passages of the source. Marks after values point to notes of the source that are not given here.

Columns and labels:
[1] = tested on: platinum-sensitive recurrent ovarian cancer; conditions: cited from earlier work; for PFS HR: p <0.0001
[2] = tested on: relapsed platinum-sensitive epithelial ovarian cancer; experiment: Randomized, open-label phase II clinical trial, DC vaccine added to carboplatin and gemcitabine vs chemotherapy alone; type: in vivo, human; conditions: ITT population, N = 32 per group
Text: An interim analysis was first performed, followed later by the final analysis.
A total of 6, 8, or 10 cycles of standard of care chemotherapy were to be completed by patients in both treatment groups as per investigators' decision (FIG. 4).

[3] = tested on: newly diagnosed epithelial ovarian carcinoma
Procedure: The study was conducted as an open label, multicenter phase II clinical trial in women with newly diagnosed epithelial ovarian carcinoma who have undergone debulking surgery.
The planned number of chemotherapy cycles was 6 in all treatment groups (FIG. 1).
Results were calculated either by using as beginning of the trial period the time of first treatment or the time of randomization. Two pre-planned per protocol interim analyses of PFS and OS were performed first at 6 months and second at 12 months after the last dose of standard of care chemotherapy of the last enrolled patient. […]

[4] = tested on: metastatic stage IV non-small cell lung cancer (NSCLC); experiment: Open label, multicenter phase II clinical trial, DCVAC/LuCa + carboplatin and paclitaxel vs carboplatin and paclitaxel alone; type: in vivo, human; conditions: PP population; interim analysis of PFS
Procedure: The purpose of the study is to compare efficacy of DCVAC/LuCa+chemotherapy (carboplatin and paclitaxel) vs. carboplatin and paclitaxel alone in patients with stage IV NSCLC, as measured by OS and progression free survival (PFS). PFS was measured based on radiological assessments according to the RECIST (Response Evaluation Criteria in Solid Tumors) guidelines (version 1.1) (Eisenhauer et al. 2009).
The planned number of chemotherapy cycles was 4-6 in all treatment groups (FIG. 7).

[5] = group A: after the start of DC vaccine treatment, group B: shorter reporting time period

Bevacizumab
OS HR ([1]; bevacizumab 15 mg/kg IV q3w + carboplatin AUC4 + gemcitabine, p 0.6479): 0.952^c | OS HR ([1]; bevacizumab 15 mg/kg IV q3w + carboplatin AUC4 + gemcitabine, p 0.6479, listed as bevacizumab): 0.952 | PFS HR ([1]; bevacizumab 15 mg/kg IV q3w + carboplatin AUC4 + gemcitabine): 0.48^c | OS HR ([1]; bevacizumab 15 mg/kg IV q3w + carboplatin AUC5 + paclitaxel, p 0.0447): 0.823^c | OS HR ([1]; bevacizumab 15 mg/kg IV q3w + carboplatin AUC5 + paclitaxel, p 0.0447, listed as bevacizumab): 0.823 | PFS HR ([1]; bevacizumab 15 mg/kg IV q3w + carboplatin AUC5 + paclitaxel): 0.613^c

carboplatin and gemcitabine
No. of 2nd-line chemotherapy non-responders: n (%) [2]: 0 (0.00%) n (%)

carboplatin and paclitaxel
No. of 1st-line chemotherapy non-responders: n (%) ([3]; ITT population, N = 31 per group): 0 (0.00%) n (%) | Number of SAEs reported [3, 5]: 14 | Number of patients in whom SAEs were reported [3, 5]: 9 | Progression of the lung cancer disease [4]: progressed for all patients
